# Measured values taken from patent US20100029761A1, “NOVEL COMPOUNDS, PHARMACEUTICAL COMPOSITIONS CONTAINING SAME, AND METHODS OF USE FOR SAME” (priority 2005, published 2010).
# Assays:
# Format in all cases: cell-based
# OV = assay: XTT cytotoxicity assay (OV); conditions: abbreviation not defined
# Procedure: The XTT assay is a non-radioactive alternative for the [^51Cr] release cytotoxicity assay. XTT is a tetrazolium salt that is reduced to a formazan dye only by metabolically active, viable cells. The reduction of XTT is measured spectrophotometrically as OD490-OD650. After 72 hours of incubation, cells are incubated for 4 hours with the XTT reagent as per manufacturer's instructions (Cell Proliferation Kit II (XTT) Roche). Plates are read at OD490 and OD650 on a Molecular Devices SpectraMax Plus Spectrophotometer. Three wells containing the XTT reagent without cells serve as the plate blank. XTT data are reported as OD490-OD650. Averages and standard error of the mean are computed using SOFTmax Pro software (Molecular Dynamics). The IC50 for the compounds is defined as the concentration of drug leading to a 50% reduction in OD490-OD650 compared to controls. The OD490-OD650 are computed by the SOFTmax PRO software (Molecular Devices) for each compound concentration. IC50 is calculated by linear regression, plotting the FAS activity as percent of control versus drug concentrations. Linear regression, best-fit line, r^2, and 95% confidence intervals are determined using Prism Version 3.0 (Graph Pad Software).
# [1] = test system: fatty acid synthesis pathway activity in MCF-7 human breast cancer cells; assay: [14C]acetate incorporation into total lipids; conditions: for 14C (IC50): [14C]acetate incorporation into lipids; for IC50: Homo sapiens, MCF7, [14C]acetate incorporation into lipids
# Procedure: This assay measures the incorporation of [^14C]acetate into total lipids and is a measure of fatty acid synthesis pathway activity in vitro. It is utilized to measure inhibition of fatty acid synthesis in vitro.
# MCF-7 human breast cancer cells cultured as above, are plated at 5×10^4 cells per well in 24-well plates. Following overnight incubation, the compounds to be tested, solubilized in DMSO, are added at 5, 10, and 20 μg/ml in triplicate, with lower concentrations tested if necessary. DMSO is added to triplicate wells for a vehicle control. C75 is run at 5 and 10 μg/ml in triplicate as positive controls. After 4 hours of incubation, 0.25 μCi of [^14C]acetate (10 μl volume) is added to each well.
# After 2 hours of additional incubation, medium is aspirated from the wells and 800 μl of chloroform:methanol (2:1) and 700 μl of 4 mM MgCl2 is added to each well. Contents of each well are transferred to 1.5 Eppendorf tubes, and spun at full-speed for 2 minutes in a high-speed Eppendorf Microcentrifuge 5415D. After removal of the aqueous (upper) layer, an additional 700 μl of chloroform:methanol (2:1) and 500 μl of 4 mM MgCl2 are added to each tube and then centrifuged for 1 minutes as above. The aqueous layer is removed with a Pasteur pipette and discarded. An additional 400 μl of chloroform:methanol (2:1) and 200 μl of 4 mM MgCl2 are added to each tube, then centrifuged and aqueous layer is discarded. The lower (organic) phase is transferred into a scintillation vial and dried at 40° C. under N2 gas. Once dried, 3 ml of scintillant (APB #NBC5104) is added and vials are counted for ^14C. The Beckman Scintillation counter calculates the average cpm values for triplicates.
# The IC50 for the compounds is defined as the concentration of drug leading to a 50% reduction in [^14C]acetate incorporation into lipids compared to controls. This is determined by plotting the average cpm for each inhibitor concentration tested, performing linear regression and computing the best-fit line, r^2 values, and 95% confidence intervals. The average cpm values are computed by the Beckman scintillation counter (Model LS6500) for each compound concentration. Computation of linear regression, best-fit line, r^2, and 95% confidence intervals are calculated using Prism Version 3.0 (Graph Pad Software).
# [2] = test system: β-Oxidation of (1-14C) palmitic acid in cells; assay: β-Oxidation assay, isolation of acid soluble products; design: unit not given here
# Procedure: A 24 well plate with 1 ml per well was prepared with 2.5×10^5 cells /well. The cells were incubated O/N. The next day, a solubilized palmitate solution was prepared. 50 μls of (1−^14C) Palmitic acid was added to a 2 ml centrifuge tube and dried under nitrogen gas. 2 mls of α-CD (α-Cyclodextran)—10 mg/ml in 10 mM Tris were added. This solution was incubated in a 37° C. water bath for 30 minutes. A hot mix was prepared by adding 25 μl of this solution to 2.5 μls of 200 μM Carnitine and 222.5 μl of serum free medium that is used for cells. The cells were then treated with the test compound in triplicate, and incubated. at 37° C. for 60 minutes. The medium was removed and 250 μl of the hot mix were added. The test compound was added again, and further incubated at 37° C. for 60 minutes. The reaction was stopped with 50 μl of 2.6 N HClO4. The contents of the plate were transferred to a 1.5 ml centrifuge tube, and 50 μl of 4N KOH were then added, and the tube incubated in a 60° C. water bath for 30 min. Sodium acetate (1 M, 75 μl) and sulfuric acid (3N, 50 μl) were added to the solution and vortexed. The tube was spun for 7 minutes at 1000 rpm at room temperature. A portion (225 μl) was removed, and the following were added (vortex after each addition, twice at the end): 938 μl of 1:1 Chloroform: Methanol; 468 μl of Chloroform; 281 μl distilled Water. The tubes were spun at 1000 rpm for 5 minutes. The upper phase was removed into a large glass scintillation vial and 5 ml of Budget solvent (scintillation liquid) was added. The tubes were well vortexed. Finally, ^14C was counted for one minute.
14C (IC50) [1],IC50 [1] [µg/mL],SMILES,IC50 (OV) [µg/mL],Beta oxidation ([2]; 0.09 ug/ml),Beta oxidation ([2]; 0.39 ug/ml),Beta oxidation ([2]; 1.56 ug/ml),Beta oxidation ([2]; 6.25 ug/ml),Beta oxidation ([2]; 25 ug/ml),Beta oxidation ([2]; 100 ug/ml),Beta oxidation ([2]; 1.25 ug/ml),Beta oxidation ([2]; 2.5 ug/ml),Beta oxidation ([2]; 5 ug/ml),Beta oxidation ([2]; 10 ug/ml),Beta oxidation ([2]; 0.19 ug/ml),Beta oxidation ([2]; 12.5 ug/ml),Beta oxidation ([2]; 50 ug/ml),Beta oxidation ([2]; .78 ug/ml)
Neg,,CCCCCCCCC1OC(=O)C(OC(=O)OCC)=C1C(=O)OCC (stereo not drawn) [Compound 7],13.8,99,107,113,146,131,54,,,,,,,,
Neg,,CCCCCCCCC1OC(=O)C(OC)=C1C(=O)OCC (stereo not drawn) [Compound 4],9.2,,,,,,,112,119,116,104,,,,
Neg,,C=CCOC1=C(C(=O)OCC)C(CCCCCCCC)OC1=O (stereo not drawn) [Compound 6],> 80,,,,,,,118,125,112,101,,,,
Neg (stim),,CCCCCCCCC1OC(=O)C(OCc2ccccc2)=C1C(=O)OCC (stereo not drawn) [Compound 5],33.9,,,,,,,108,101,115,74,,,,
,40.7 ± 7.1,CCCCCCCCC1OC(=O)C(=O)C1C(=O)OCC (stereo not drawn) [Compound 1],18.4 ± 5.8,,,,,,,,,,,,,,
Neg,,CCCCC1OC(=O)C(O)=C1C(=O)OCC (stereo not drawn) [Compound 2],66.1,,102,112,,,,,,,,102,108,45,107
,30,CCCCCCCCC1OC(=O)C(OCC(=O)OCC)=C1C(=O)OCC (stereo not drawn) [Compound 3],24.1,,,,,,,113,131,138,79,,,,
